Measured values as given in the METLIN SMRT retention time set (Domingo-Almenara et al. 2019).

Experiment: gradient 5% acetonitrile 3 min, to 50% in 2 min, to 85% in 15 min, held 3 min, 100 µL/min
Conditions: column: Zorbax Extend-C18 2.1 x 50 mm; eluents: water / acetonitrile, 0.1% formic acid
In short: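 Over 3 months, pure standards in mixtures of ~100 molecules were run by HPLC coupled to a quadrupole time-of-flight mass spectrometer in positive and negative ionization mode. The column was a Zorbax Extend-C18 (2.1 × 50 mm, 1.8 μm) at 100 μL/min, eluted with water and acetonitrile each holding 0.1% formic acid, with 40 μL dead and 900 μL dwell volumes. Retention time was determined from adduct peaks chosen by software and checked manually.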

| RP-LC retention time [s] | Compound |
| --- | --- |
| 1060 | Cn1cc(C2=CCN(S(=O)(=O)c3cccc(Cl)c3)CC2)c2cccnc21 |
| 643 | O=C(Cn1c(N2CCCCC2)nc2ccccc2c1=O)N1CCN(c2ccccn2)CC1 |
| 686 | CCc1nccn1Cc1nc(-c2cccc(C(F)(F)F)c2)no1 |
| 715 | O=C(Cn1nc2c(N3CCCCCC3)nccn2c1=O)Nc1ccc(F)cc1 |
| 831 | CN1c2cc(Cl)ccc2C(=O)NC12CCN(C(=O)Nc1cccc(F)c1)CC2 |
| 1000 | CCCNc1nc(-c2nnc(-c3cccc(C)c3)o2)nc2ccccc12 |
| 995 | Cc1ccc(-c2noc(-c3cccc(S(=O)(=O)N4CCN(c5ccccn5)CC4)c3)n2)cc1 |
| 809 | CCc1cccc(NC(=O)Cn2c(-c3cnccn3)nc(C)c(C)c2=O)c1 |
| 1320 | Cc1ccc(C)c(-c2cc3c(=O)n(Cc4nc(-c5ccc(Br)cc5)no4)ncn3n2)c1 |
| 575 | O=C(Cc1csc(Nc2cccc(Cl)c2)n1)NCc1cccnc1 |
| 641 | CCCN1C(=O)Cc2ccccc2C1C(=O)NCCOC (configuration not stated) |
| 678 | O=C(NCC1CN(c2ccc3c(c2)OCO3)C(=O)O1)c1cccs1 (configuration not stated) |
| 1160 | COc1ccc(NC(=O)C2CCCN(c3nc4c(s3)c(C)nn4-c3ccccc3)C2)c(OC)c1 (configuration not stated) |
| 739 | Cc1nc(-c2cccc(NC(=O)CCn3nnc4ccccc4c3=O)c2)cs1 |
| 567 | O=C(C1CCCN(c2cnc3nccnc3c2)C1)N1CCN(C2CCCCC2)CC1 (configuration not stated) |
| 848 | Cc1nc2cc(N3CC(C(=O)N4CCN(c5ccccc5C)CC4)CC3=O)ccc2o1 (configuration not stated) |
| 808 | O=C(Nc1cccc(F)c1)C1CCCN(S(=O)(=O)c2c[nH]c(C(=O)N3CCCC3)c2)C1 (configuration not stated) |
| 632 | CCOC(=O)c1c(C)n(C)c2ccc(OCCN(C)C)cc12 |
| 594 | Cc1nn(C)c(C)c1C(C)NC(=O)CCC1CCCN(c2cc(NC3CC3)ncn2)C1 (configuration not stated) |
| 877 | CSc1cccc(NC(=O)Cn2ccn3nc(-c4ccc(F)cc4)c(CO)c3c2=O)c1 |
| 1090 | O=C(CCc1conc1-c1ccc(F)cc1)N1CCN(c2ccc(Cl)cc2)CC1 |
| 739 | CSc1ccc(-c2nc3ccc(C)cn3c2Nc2ccc3c(c2)OCO3)cc1 |

| RP-LC retention time [s] | Compound |
| --- | --- |
| 616 | CC(=O)c1cccc(NC(=O)COc2cc(C)nc(N3CCCC3)n2)c1 |
| 977 | Cc1nc2cc(-c3noc(-c4ccsc4)n3)ccc2o1 |
| 1020 | Cc1ccc(C)c(N2CCN(C(=O)c3c(C)oc4nc(C)nc(N5CCOCC5)c34)CC2)c1 |
| 650 | COC(=O)c1ccc(C(=O)N(Cc2ccccn2)Cc2ccco2)cc1 |
| 839 | CCOc1ccc(S(=O)(=O)N2CCN(c3cc(C)nc(NC4CCCCC4)n3)CC2)cc1 |
| 625 | Cc1c(C(=O)C(=O)NCc2ccccn2)c2ccccc2n1C |
| 585 | O=C(Cn1c(=O)n(-c2ccccc2)c2ncccc21)NCCN1CCCCC1 |
| 754 | COC(=O)c1ccc2c(=O)n(-c3ccc(Cl)cc3)c(N3CCN(C4CCCCC4)CC3)nc2c1 |
| 1090 | CN(C(=O)Cn1cccc1-c1nc(-c2ccc3c(c2)OCO3)no1)c1ccccc1 |
| 698 | CC1CCN(C(=O)CN2C(=O)COc3ccc(C(=O)N4CCCC4)cc32)CC1 |
| 856 | CC1=C(c2ccc(F)cc2)S(=O)(=O)N=C1N1CCCN(C(=O)CC(C)(C)C)CC1 |
| 922 | Cc1ccc(S(=O)(=O)N2CCN(S(=O)(=O)N3CCCCC3)CC2)cc1 |
| 1030 | CC(C)Cc1cc(-c2nn3c(COc4ccc(Br)cc4)nnc3s2)n[nH]1 |
| 867 | Cc1cc(C)c(NC(=O)Cn2nc3cc(C)nc(-c4ccccc4)n3c2=O)c(C)c1 |
| 885 | CCc1noc(NC(C)=O)c1-c1ccc(C)c(S(=O)(=O)Nc2cc(C)cc(C)c2)c1 |
| 875 | Cc1ccc2[nH]cc(CCNC(=O)CS(=O)Cc3cnn(-c4ccccc4)c3-n3cccc3)c2c1 (configuration not stated) |
| 750 | Cn1cc(C=C2C(=O)Nc3cccnc32)c2ccccc21 |
| 1000 | O=C1COc2ccc(Cl)cc2N1Cc1nc(-c2ccc(N3CCOCC3)cc2)no1 |
| 1080 | CC(C)Oc1ccc(-c2noc(Cn3nc(-c4ccc5c(c4)OCO5)ccc3=O)n2)cc1 |
| 616 | O=C(CCc1conc1-c1ccccc1)N1CCC(N2CCCCC2)CC1 |
| 1320 | Cc1ccc(NC(=O)c2c(O)c3cccnc3n(-c3ccc(F)cc3)c2=O)c(C)c1 |
| 559 | O=C(NC1CC1)c1nc(C(=O)N2CCN(c3ccccn3)CC2)cs1 |

| RP-LC retention time [s] | Compound |
| --- | --- |
| 1080 | Cc1c(Cl)cccc1NC(=O)Cn1c(=O)cc(-c2nc(C(C)C)no2)c2ccccc21 |
| 830 | CC(C)CC(=O)Nc1nc(-c2ccc3c(c2)N(C)C(=O)CO3)cs1 |
| 844 | CCc1cccc(NC(=O)Cn2c(=O)c3cc(C4CC4)nn3c3ncccc32)c1 |
| 578 | CN1CCN(c2cc(C(=O)O)c3cc(NC(=O)C(C)(C)C)ccc3n2)CC1 |
| 763 | O=C(c1cccc(Cl)c1)N1CCN(c2cc(-c3ccccc3)[nH]n2)CC1 |
| 824 | COCCN(Cc1cccs1)C(=O)c1nnn(-c2ccccc2)c1-c1ccccn1 |
| 727 | Cn1cc(CC(=O)NCc2ccc(F)cc2Cl)c2cccnc21 |
| 682 | O=C(CC(F)(F)F)N1CCCC(CCc2nnc(C3CCOCC3)o2)C1 (configuration not stated) |
| 729 | CCc1ccccc1NS(=O)(=O)c1cc(-c2[nH]ncc2C(=O)N(C)C)oc1C |
| 747 | O=C(c1cccs1)N1CCC2(CC1)N=C(c1ccccc1)NO2 |
| 611 | COc1ccc(OCC(=O)N2CCN(c3nc(CN4CCOCC4)cs3)CC2)cc1 |
| 727 | CC(CCc1ccccc1)NC(=O)C1CN(C(=O)c2cccs2)C1 (configuration not stated) |
| 752 | Cc1noc2nc(C)n(CC(=O)NCCc3ccccc3)c(=O)c12 |
| 777 | CC1(C(=O)NCc2ccc(F)cc2)Cn2cnc(C(=O)NCc3ccc(F)cc3)c2C(=O)N1C1CC1 (configuration not stated) |
| 760 | CCCn1ccc2sc(C)c(C(=O)NC3CCCC3)c2c1=O |
| 839 | O=C(NCC1CCCCC1)C1CCCN(c2nnc3ccc(Cl)cn23)C1 (configuration not stated) |
| 567 | CCn1cnc(S(=O)(=O)N2CCC(C(=O)NCc3ccc(N(C)C)cc3)CC2)c1 |
| 1080 | CCc1ccc(N2CC(c3noc(-c4ccc(OC)cc4)n3)CC2=O)cc1 (configuration not stated) |
| 674 | Cc1cc(=O)n(CC(=O)N2CCN(c3ccc(F)cc3)CC2)c(N2CCOCC2)n1 |
| 772 | Cn1ncc(NC(=O)Cc2ccc(Cl)cc2)c(N2CCOCC2)c1=O |
| 728 | CC(C)(C)NC(=O)N1CCCC(c2nc(CCOCC3CCOCC3)no2)C1 (configuration not stated) |
| 1010 | Cc1nc(-c2csc(S(=O)(=O)N3CCC(C(=O)Nc4ccc(F)cc4Cl)CC3)c2)no1 |

| RP-LC retention time [s] | Compound |
| --- | --- |
| 743 | Cc1cc(C)c(S(=O)(=O)Nc2cccc(-c3cn4cccc(C)c4n3)c2)cc1C |
| 951 | CCCNC(=O)C1CCN(c2nc3ccc(-c4ccccc4F)nc3s2)CC1 |
| 634 | CC(C)NC(=O)Nc1cc2c(cc1N1CCOCC1)n(C)c(=O)n2C |
| 718 | CC(C)NC(=O)c1ccc(-c2nc3cc(NS(=O)(=O)c4cc(F)cc(F)c4)ccc3n2C)cc1 |
| 857 | CCCNC(=O)Cn1cnc2sc(C(=O)NC3CCCC(C)C3C)c(C)c2c1=O (configuration not stated) |
| 829 | CSc1nc(N2CCCC2)c2cnn(CCNC(=O)CSc3ccc(F)cc3)c2n1 |
| 594 | CN(C)c1cccc(C(=O)Nc2ccc(CC(=O)NC(C)(C)CO)cc2)c1 |
| 954 | Cc1nc(Cn2cccc2C(=O)Nc2ccc(C)c(Cl)c2)no1 |
| 844 | FC(F)(F)c1ccc(Nc2nc3ccc(Oc4ccnc(-c5ncc(C(F)(F)F)[nH]5)c4)cc3[nH]2)cc1 |
| 604 | CN(C)c1ccc(CCCNC(=O)Cc2ccc(Cl)cc2)cc1 |
| 828 | CCc1noc(-c2ccc(-n3cnc(C(=O)NC(C)CC)c3)nc2)n1 (configuration not stated) |
| 739 | Cc1ccc(Cl)c(NS(=O)(=O)c2cc(-c3[nH]ncc3C(=O)N3CCCC3)oc2C)c1 |
| 708 | O=c1ccc(-n2cccn2)nn1CCNS(=O)(=O)c1ccc(Cl)s1 |
| 786 | Cc1noc(C2CN(C(=O)Nc3cccc(Cl)c3)CC23CCOCC3)n1 (configuration not stated) |
| 674 | CC(=O)c1cccc(NC(=O)Cn2cnc3nc4c(cc3c2=O)CCCC4)c1 |
| 793 | Cc1ccc(C)c(NC(=O)C2CCCN(c3ncnc4c3nc3n4CCCCC3)C2)c1 (configuration not stated) |
| 612 | CCn1cc(CN(C)C(=O)C2N(C(C)C)C(=O)C23CCCC3)c(C)n1 (configuration not stated) |
| 800 | CCC(=O)N1CC(c2nc(-c3ccc(F)cc3)no2)C2(CCOCC2)C1 (configuration not stated) |
| 776 | CCC(=O)N1CCc2cc(N3CC(C(=O)NCc4cccc(Cl)c4)CC3=O)ccc21 (configuration not stated) |
| 1070 | Cc1cc(F)ccc1N1C(=O)CN(S(C)(=O)=O)CC1(C)C(=O)NC1CCCCCCC1 (configuration not stated) |
| 852 | Cc1ccc(NC(=O)CN2C(=O)CCCc3cc(S(=O)(=O)N4CCCC4)ccc32)c(C)c1 |
